Values belong to the molecule of their own block, whether it stands above or below them.
T1: A. aeolicus RNR (AaR1 + AaR2) (Aquifex aeolicus, UniProt O66503)
T1 construct: gene nrdA; full length AaR1 and AaR2 (construct lacking the 346-residue intein, equal to mature R2; natural precursor contains the intein), N-terminal His tags with thrombin site, E. coli expression; R2 42 kDa; with Ribonucleoside-diphosphate reductase subunit beta
T1 sequence (O66503 1-801): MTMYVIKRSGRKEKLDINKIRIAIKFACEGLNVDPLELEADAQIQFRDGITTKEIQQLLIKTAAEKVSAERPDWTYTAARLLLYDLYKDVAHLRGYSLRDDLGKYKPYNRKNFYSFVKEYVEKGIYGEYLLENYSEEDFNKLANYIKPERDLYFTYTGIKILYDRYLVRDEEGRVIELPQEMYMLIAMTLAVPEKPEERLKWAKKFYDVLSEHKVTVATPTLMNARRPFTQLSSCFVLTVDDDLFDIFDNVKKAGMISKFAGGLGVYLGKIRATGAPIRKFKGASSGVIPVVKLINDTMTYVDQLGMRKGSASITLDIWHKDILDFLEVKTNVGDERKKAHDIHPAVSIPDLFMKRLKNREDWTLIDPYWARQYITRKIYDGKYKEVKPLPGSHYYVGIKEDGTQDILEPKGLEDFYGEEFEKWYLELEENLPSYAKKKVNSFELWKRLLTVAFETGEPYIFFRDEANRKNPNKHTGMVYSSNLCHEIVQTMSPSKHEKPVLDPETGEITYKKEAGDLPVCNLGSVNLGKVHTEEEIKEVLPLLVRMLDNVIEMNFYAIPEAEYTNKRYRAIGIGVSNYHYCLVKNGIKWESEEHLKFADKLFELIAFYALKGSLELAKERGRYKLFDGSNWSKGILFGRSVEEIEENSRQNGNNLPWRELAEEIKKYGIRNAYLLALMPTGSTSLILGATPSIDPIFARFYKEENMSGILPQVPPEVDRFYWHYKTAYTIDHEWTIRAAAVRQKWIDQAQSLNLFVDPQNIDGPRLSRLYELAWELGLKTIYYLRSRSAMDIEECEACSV
T1 sequence (O67475 1-229 partner): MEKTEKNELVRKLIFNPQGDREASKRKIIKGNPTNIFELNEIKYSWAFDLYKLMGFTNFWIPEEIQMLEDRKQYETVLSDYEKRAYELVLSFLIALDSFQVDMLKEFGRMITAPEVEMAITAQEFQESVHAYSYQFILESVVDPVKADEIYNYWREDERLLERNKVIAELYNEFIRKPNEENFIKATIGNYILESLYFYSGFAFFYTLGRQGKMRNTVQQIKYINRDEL
T1 sequence (O67475 576-696 partner): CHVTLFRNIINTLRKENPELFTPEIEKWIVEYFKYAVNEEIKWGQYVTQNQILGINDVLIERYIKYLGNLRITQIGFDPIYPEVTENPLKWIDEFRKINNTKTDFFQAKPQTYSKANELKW

T2: AaR1 (Aquifex aeolicus, UniProt O66503)
T2 construct: gene nrdA; full length, N-terminal His tag and thrombin site (pET-28a), expressed in E. coli BL21(DE3); 93 kDa; monomer-dimer equilibrium
T2 sequence (O66503 1-801): T1 sequence (O66503 1-801)

B1: Aquifex aeolicus ribonucleotide reductase R2 protein (β-subunit), from a construct lacking the intein (enzyme, UniProt O67475 1-229, looked up)
chain: MEKTEKNELVRKLIFNPQGDREASKRKIIKGNPTNIFELNEIKYSWAFDLYKLMGFTNFWIPEEIQMLEDRKQYETVLSDYEKRAYELVLSFLIALDSFQVDMLKEFGRMITAPEVEMAITAQEFQESVHAYSYQFILESVVDPVKADEIYNYWREDERLLERNKVIAELYNEFIRKPNEENFIKATIGNYILESLYFYSGFAFFYTLGRQGKMRNTVQQIKYINRDELCHVTLFRNIINTLRKENPELFTPEIEKWIVEYFKYAVNEEIKWGQYVTQNQILGINDVLIERYIKYLGNLRITQIGFDPIYPEVTENPLKWIDEFRKINNTKTDFFQAKPQTYSKANELKW
notes: Class I ribonucleotide reductase small (β) subunit R2, Aquifex aeolicus; Leu229 is joined to Cys230; The natural gene product carries the intein between Leu229 and Cys230; Theoretical mass of the polypeptide 42 kDa. numbers count on: the mature protein (intein removed); Homodimer in the crystal, GEMMA and SEC; No removal of the His tag is described; also called AaR2; mature AaR2; source: E. coli …
B2: Aquifex aeolicus ribonucleotide reductase R1 protein (α-subunit) (enzyme, UniProt O66503 1-801, looked up)
chain: T1 sequence (O66503 1-801)
notes: Class I ribonucleotide reductase large (α) subunit R1, NrdAh subclass, Aquifex aeolicus; full length, synthetic gene (Genscript) in pET-28a(+) with N-terminal His tag and thrombin cleavage site; theoretical mass of the polypeptide 93 kDa; Homodimer in the crystal; monomer-dimer equilibrium in GEMMA and SEC; No removal of the His tag by thrombin is described; also called AaR1; NrdAh; source: E. …

Columns and labels:
[1] = target: T1, A. aeolicus RNR (AaR1 + AaR2); assay: HPLC NDP reduction assay; assay type: biochemical; details: pH 6.8, 79 °C
[2] = target: T2, AaR1; assay: GEMMA, effector-induced R1 dimerization; assay type: binding; details: allosteric; 100 µM dATP, equimolar Mg acetate, 300 mM ammonium acetate pH 7.5, preincubated at 78 °C
[3] = target: B2; assay: SEC; equimolar AaR1 and AaR2, 20 μM, with ATP and MgCl2; Superdex 200 PC 3.2/30, 20 mM Hepes pH 7.4, 75 mM NaCl, 0.2 mM TCEP; preincubated 5 min at 70 °C, run at 7 °C; top peak fraction analysed by SDS-PAGE; details: both partners purified
[4] = target: the molecule itself; assay: GEMMA (gas-phase electrophoretic mobility macromolecule analysis); individual R1 or R2 at 0.25 μM, 300 mM ammonium acetate pH 7.5, 0.005% Tween 20, without or with 300 μM ATP or 100 μM dATP (equimolar magnesium acetate); preincubated 2 min at 78 °C, analysed at room temperature

Molecule: Nc1nc2c(ncn2[C@@H]2O[C@H](COP(=O)(O)OP(=O)(O)O)[C@@H](O)[C@H]2O)c(=O)[nH]1 [GDP]
- HPLC NDP reduction assay ([1]; 0.5 mM GDP with CDP, ADP and UDP, dTTP effector 2 mM, 10 mM DTT): specific activities for the conversion of CDP, UDP, GDP, and ADP to their corresponding dNDPs

Molecule: Nc1ncnc2c1ncn2[C@H]1C[C@H](O)[C@@H](COP(=O)(O)OP(=O)(O)OP(=O)(O)O)O1 [dATP]
- GEMMA, effector-induced R1 dimerization [2]: Allosteric effectors stimulated R1 dimerization, although complete conversion to dimers was not obtained

Molecule: Nc1nc2c(ncn2[C@H]2C[C@H](O)[C@@H](COP(=O)(O)OP(=O)(O)OP(=O)(O)O)O2)c(=O)[nH]1 [dGTP]
- HPLC NDP reduction assay ([1]; allosteric effector, s-site, induces ADP reduction, 2 mM dGTP, four substrates 0.5 mM each): dTTP and dGTP induce the reduction of GDP and ADP, respectively

- HPLC NDP reduction assay ([1]; allosteric activator, 2 mM ATP, four substrates 0.5 mM each, 10 mM DTT, 10 mM Mg acetate, titration with CDP in Figure S3): ATP induces the reduction of CDP and UDP
Molecule: Nc1ncnc2c1ncn2[C@@H]1O[C@H](COP(=O)(O)OP(=O)(O)OP(=O)(O)O)[C@@H](O)[C@H]1O [ATP]

Molecule: B1
- stoichiometry N [3]: 1 AaR1:AaR2
- stoichiometry N [4]: 2

Molecule: B2
- stoichiometry N [4]: 2
